Measurements: patent publication US7135572B2 (CJ Corp, priority 2001, dated 2006)

Experiments:
cyclooxygenase-1 = target: T1, cyclooxygenase-1 (Homo sapiens, UniProt P23219); test: Inhibition of cyclooxygenase-1 in U-937 cells (PGE2 quantitation); assay type: cell-based; conditions: U-937 cells
T1 construct: The cultured U-937 (humane lymphoma cell, obtained from Korean cell line bank) was centrifuged to collect the pellet; endogenous in cells; host or cells: U-937 (human lymphoma cell line, Korean cell line bank)
T1 sequence (P23219 24-599): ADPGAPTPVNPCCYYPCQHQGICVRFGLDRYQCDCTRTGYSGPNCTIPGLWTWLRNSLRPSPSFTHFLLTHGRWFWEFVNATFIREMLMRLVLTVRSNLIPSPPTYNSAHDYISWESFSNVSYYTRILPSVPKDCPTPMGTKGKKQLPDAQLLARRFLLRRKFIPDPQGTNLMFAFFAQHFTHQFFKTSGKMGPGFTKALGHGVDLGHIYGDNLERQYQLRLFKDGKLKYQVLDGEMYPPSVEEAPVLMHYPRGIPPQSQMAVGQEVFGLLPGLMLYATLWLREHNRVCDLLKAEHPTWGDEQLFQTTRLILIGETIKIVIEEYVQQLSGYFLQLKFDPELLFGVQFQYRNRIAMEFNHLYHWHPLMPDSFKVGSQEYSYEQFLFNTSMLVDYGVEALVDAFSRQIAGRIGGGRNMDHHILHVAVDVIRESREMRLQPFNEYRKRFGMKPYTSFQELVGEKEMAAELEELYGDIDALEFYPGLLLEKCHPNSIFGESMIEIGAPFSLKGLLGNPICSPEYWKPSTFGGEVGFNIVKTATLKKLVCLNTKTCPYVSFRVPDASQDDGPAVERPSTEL
Procedure: (§1) In order to investigate pharmacologically the selective inhibition activity against cyclooxygenase-2 enzyme, the inhibitive effects against cyclooxygenase-1 and cyclooxygenase-2 were measured by two methods as follows.
Then, the pellet was diluted with 1×HBSS(Hank's balanced salt solutin) at the concentration of 1×10^6 cells/ml, and 1 ml of them was transferred into each well of 12-well plates, and then dissolved with DMSO. 5μl of the diluted sample solution, and 5μl of DMSO vehicle were added therein and mixed, and the mixture was cultured at 37° C. in Co2 incubator for 15 minutes. Arachidonic acid as a substrate was dissolved in ethanol to prepare a stock solution with a concentration of 10 mM, followed by diluting with 1×HBSS to prepare the solution of 1 mM. 10 μl of 1 mM Arachidonic acid solution was added to each of the treated wells, and the mixture was cultured at 37° C. in CO2 incubator for 30 minutes. The cell solution of each well was collected in the centrifuge tube and was centrifuged at 4° C. for 5 minutes at 10,000 rpm. As PGE2 existed in the supernatant separated from collected cell, the concentration of PGE2 was quantitated by using monoclonal kit from Cayman Chemicals, and the concentration of samples and vehicle were compared to estimate the inhibition ratio (%) of each compound against cyclooxygenase-1. Ultimately, the inhibition effect against the cyclooxygenase-1 enzyme was obtained from the result.

cyclooxygenase-2 = target: T2, cyclooxygenase-2 (Mus musculus, UniProt Q05769); test: Inhibition of cyclooxygenase-2 in Raw 264.7 cells treated with interferon γ and LPS (PGE2 EIA); assay type: cell-based; conditions: for Inhibitory effects of cyclooxygenase (COX): COX-2: Raw 264.7 cells
T2 construct: endogenous in cells; host or cells: Raw 264.7 (Korean cell line bank), aspirin-pretreated, induced with interferon gamma and LPS
T2 sequence (Q05769 18-604): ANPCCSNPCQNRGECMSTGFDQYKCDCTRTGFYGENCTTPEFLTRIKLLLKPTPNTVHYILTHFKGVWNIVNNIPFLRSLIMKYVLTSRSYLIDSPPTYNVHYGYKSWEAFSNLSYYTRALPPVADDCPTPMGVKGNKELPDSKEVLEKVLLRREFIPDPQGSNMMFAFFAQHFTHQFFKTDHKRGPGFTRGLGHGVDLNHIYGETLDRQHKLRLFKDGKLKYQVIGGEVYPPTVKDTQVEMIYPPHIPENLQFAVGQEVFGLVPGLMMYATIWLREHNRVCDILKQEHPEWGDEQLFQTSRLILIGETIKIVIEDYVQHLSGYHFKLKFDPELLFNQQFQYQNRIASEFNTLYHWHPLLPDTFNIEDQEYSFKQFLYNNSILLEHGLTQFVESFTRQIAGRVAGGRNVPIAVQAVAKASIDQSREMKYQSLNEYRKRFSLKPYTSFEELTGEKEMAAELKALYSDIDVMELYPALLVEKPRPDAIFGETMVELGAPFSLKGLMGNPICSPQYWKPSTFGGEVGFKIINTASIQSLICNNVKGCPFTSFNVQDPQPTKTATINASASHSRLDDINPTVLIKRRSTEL
Procedure: as §1
And then, each samples were replaced with new media and cultured for 30 minutes. In addition, the samples was treated with 100 units/ml of interferon Υ and 100 ng/ml of lipopolysaccharide(LPS), and cultured for 18 hours. Then, the media was transferred to other tubes and the PGE 2 was quantitated by using EIA kit from Cayman Chemicals.

Inhibitory effects of cyclooxygenase (COX): COX-1 (cyclooxygenase-1; 3 μM): 81.4 % inhibition
Inhibitory effects of cyclooxygenase (COX): COX-1 (cyclooxygenase-1; 10 μM): 82.0 % inhibition
Inhibitory effects of cyclooxygenase (COX): COX-1 (cyclooxygenase-1; 30 μM): 88.1 % inhibition
Inhibitory effects of cyclooxygenase (COX): COX-2 (cyclooxygenase-2; 30 nM): 69.5 % inhibition
Inhibitory effects of cyclooxygenase (COX): COX-2 (cyclooxygenase-2; 100 nM): 99.8 % inhibition
Inhibitory effects of cyclooxygenase (COX): COX-2 (cyclooxygenase-2; 300 nM): 99.9 % inhibition
selectivity of cyclooxygenase-2 compared with the comparative substance (in words) (cyclooxygenase-2; COX-2 versus COX-1): hardly different
SMILES: Cc1nc(-c2ccc(Br)cc2)n(-c2ccc(S(C)(=O)=O)cn2)n1 [Example 31, 2-[5-(4-bromo-phenyl)-3-methyl-[1,2,4]triazole-1-yl]-5-methanesulfonyl-pyridine]
